Here are results for 3 substances from patent US20170045513A1, “METHODS OF DIAGNOSING CELIAC DISEASE USING IP-10” (ImmusanT, Inc., priority 2014, published 2017).

The test relates to gluten-reactive T cells. As to the kind of experiment: 96-well plate whole blood cytokine release, IP-10 by MAGPIX multiplex bead assay. The note with it: for Percent of maximal response to individual gluten peptides, IP-10: after oral gluten challenge; for IP-10 WB MAGPIX % max Mean: n = 10, blood after oral gluten challenge, individual peptides 5 μM (Peptide 2* of P14, Pepscan: 10 μg/mL (5.45 μM)). The format is cell-based, human.

Non-standard residues stand in square brackets, D forms with d. pGlu = O=C1CC[C@@H](C(=O)O)N1 Where only a bound is given, the exact number is not on record here.

With “(pE)LQPFPQPELPYPQPQ-amide ([pGlu]LQPFPQPELPYPQPQ-NH2; SMILES CC(C)C[C@H](NC(=O)[C@@H]1CCC(=O)N1)C(=O)N[C@@H](CCC(N)=O)C(=O)N1CCC[C@H]1C(=O)N[C@@H](Cc1ccccc1)C(=O)N1CCC[C@H]1C(=O)N[C@@H](CCC(N)=O)C(=O)N1CCC[C@H]1C(=O)N[C@@H](CCC(=O)O)C(=O)N[C@@H](CC(C)C)C(=O)N1CCC[C@H]1C(=O)N[C@@H](Cc1ccc(O)cc1)C(=O)N1CCC[C@H]1C(=O)N[C@@H](CCC(N)=O)C(=O)N1CCC[C@H]1C(=O)N[C@@H](CCC(N)=O)C(N)=O) [Peptide 1]”, the “IP-10 WB MAGPIX % max Mean” value is listed as 58 % max. Further, the “Percent of maximal response to individual gluten peptides, IP-10” value (“Percent of maximal response” below) (Subject 1, Max. 2331 pg/mL) is listed as 100 % of max. For the same substance, the “Percent of maximal response” value (Subject 2, Max. 3646 pg/mL) is 100 % of max. Besides, the “Percent of maximal response” value (Subject 3, Max. 9492 pg/mL) is ≥ 100 % of max. In addition, the “Percent of maximal response” value (Subject 4, Max. 9463 pg/mL) is 96 % of max. Moreover, the “Percent of maximal response” value (Subject 5, Max. 9336 pg/mL) is 14 % of max. In addition, the “Percent of maximal response” value (Subject 6, Max. 5863 pg/mL) is 23 % of max. Moreover, the “Percent of maximal response” value (Subject 7, Max. 2330 pg/mL) is given as 39 % of max. For the same substance, for the setting “Subject 8, Max. 4019 pg/mL”, the “Percent of maximal response” value is reported as 3 % of max. Moreover, the “Percent of maximal response” value (Subject 9, Max. 8349 pg/mL) is recorded as 75 % of max. Further, the “Percent of maximal response” value (Subject 10, Max. 8922 pg/mL) is listed as 34 % of max.
“(pE)PEQPEQPFPEQPQQ-amide ([pGlu]PEQPEQPFPEQPQQ-NH2; SMILES NC(=O)CC[C@H](NC(=O)[C@H](CCC(N)=O)NC(=O)[C@@H]1CCCN1C(=O)[C@H](CCC(N)=O)NC(=O)[C@H](CCC(=O)O)NC(=O)[C@@H]1CCCN1C(=O)[C@H](Cc1ccccc1)NC(=O)[C@@H]1CCCN1C(=O)[C@H](CCC(N)=O)NC(=O)[C@H](CCC(=O)O)NC(=O)[C@@H]1CCCN1C(=O)[C@H](CCC(N)=O)NC(=O)[C@H](CCC(=O)O)NC(=O)[C@@H]1CCCN1C(=O)[C@@H]1CCC(=O)N1)C(N)=O) [Peptide 11]”: the “IP-10 WB MAGPIX % max Mean” value is reported as 1 % max. Further, the “Percent of maximal response” value (Subject 1, Max. 2331 pg/mL) is listed as 0 % of max. For the same substance, where the note is “Subject 2, Max. 3646 pg/mL”, the “Percent of maximal response” value is given as 0 % of max. Besides, the “Percent of maximal response” value (Subject 3, Max. 9492 pg/mL) was 6 % of max. Under “Subject 4, Max. 9463 pg/mL”, the “Percent of maximal response” value was 2 % of max. In addition, the “Percent of maximal response” value (Subject 5, Max. 9336 pg/mL) is given as 0 % of max. Further, where the note is “Subject 6, Max. 5863 pg/mL”, the “Percent of maximal response” value is on record as 0 % of max. Further, the “Percent of maximal response” value (Subject 7, Max. 2330 pg/mL) is 0 % of max. Also, the “Percent of maximal response” value (Subject 8, Max. 4019 pg/mL) is reported as 0 % of max. Moreover, under “Subject 9, Max. 8349 pg/mL”, the “Percent of maximal response” value was 0 % of max. Besides, the “Percent of maximal response” value (Subject 10, Max. 8922 pg/mL) is 0 % of max.
In the case of “(pE)PEQPFPEQPIPEQPQPYP-amide ([pGlu]PEQPFPEQPIPEQPQPYP-NH2; SMILES CC[C@H](C)[C@H](NC(=O)[C@@H]1CCCN1C(=O)[C@H](CCC(N)=O)NC(=O)[C@H](CCC(=O)O)NC(=O)[C@@H]1CCCN1C(=O)[C@H](Cc1ccccc1)NC(=O)[C@@H]1CCCN1C(=O)[C@H](CCC(N)=O)NC(=O)[C@H](CCC(=O)O)NC(=O)[C@@H]1CCCN1C(=O)[C@@H]1CCC(=O)N1)C(=O)N1CCC[C@H]1C(=O)N[C@@H](CCC(=O)O)C(=O)N[C@@H](CCC(N)=O)C(=O)N1CCC[C@H]1C(=O)N[C@@H](CCC(N)=O)C(=O)N1CCC[C@H]1C(=O)N[C@@H](Cc1ccc(O)cc1)C(=O)N1CCC[C@H]1C(N)=O) [Peptide 14]”, the “IP-10 WB MAGPIX % max Mean” value was determined as 82 % max. In addition, the “Percent of maximal response” value (Subject 1, Max. 2331 pg/mL) is listed as 2 % of max. The “Percent of maximal response” value (Subject 2, Max. 3646 pg/mL) is 31 % of max. Also, the “Percent of maximal response” value (Subject 3, Max. 9492 pg/mL) is ≥ 100 % of max. In addition, for the setting “Subject 4, Max. 9463 pg/mL”, the “Percent of maximal response” value is reported as ≥ 100 % of max. Besides, for the setting “Subject 5, Max. 9336 pg/mL”, the “Percent of maximal response” value is listed as 100 % of max. The “Percent of maximal response” value (Subject 6, Max. 5863 pg/mL) was 100 % of max. The “Percent of maximal response” value (Subject 7, Max. 2330 pg/mL) is given as 100 % of max. Besides, the “Percent of maximal response” value (Subject 8, Max. 4019 pg/mL) was 91 % of max. Moreover, the “Percent of maximal response” value (Subject 9, Max. 8349 pg/mL) was ≥ 100 % of max. In addition, for the setting “Subject 10, Max. 8922 pg/mL”, the “Percent of maximal response” value is ≥ 100 % of max.
